2 molecules from ChEMBL document CHEMBL5729033, “Macrocyclic compounds that inhibit MCL-1 protein” (2022) can be followed below.

The assay deals with Induced myeloid leukemia cell differentiation protein Mcl-1/Bcl-2-like protein 11 (Homo sapiens, UniProt Q07820). Kind of assay: Cell Free Mcl-1:Bim Affinity Assay (Mcl-1 HTRF): The inhibition of the Mcl-1/Bim interaction was measured using a time-resolved fluorescence resonance energy transfer (TR-FRET) assay. The recombinant human Mcl-1 (C-terminally 6×His tagged Mcl-1 containing residues 171-327) was generated at Amgen Inc (Thousand Oaks, Calif.). A biotinylated peptide derived from human Bim (residues 51-76) was purchased from CPC Scientific (San Jose, Calif.). The TR-FRET assay was conducted in a 384-well white OptiPlate™ (PerkinElmer, Waltham, Mass.) in a total volume of 40 μL. The reaction mixture contained 0.1 nM Mcl-1(171-327), 0.05 nM biotin-Bim(51-76), 0.05 nM LANCES Eu-W1024 Anti-6×His (PerkinElmer), 0.072 nM Streptavidin-Xlent (Cisbio, Bedford, Mass.), and serially diluted test compounds in the binding buffer of 20 mM Hepes, pH 7.5, 150 mM NaCl, 0.016 mM Brij®35, and 1 mM dithiothreitol. Test compounds were pre-incubated with Mcl-1(171-327) and biotin-Bim (51-76) for 60 min before addition of the detection mixture (LANCE® Eu-W1024 Anti-6×His and Streptavidin-Xlent). The reaction plates were further incubated overnight and then were read on an Envision® multimode reader (PerkinElmer). Fluorescence signals were measured at 620 nm (40-nm bandwidth) and 665 nm (7.5-nm bandwidth) with a 60 μs delay after excitation at 320 nm (75-nm bandwidth). […]. The assay is classed as protein assay.
Induced myeloid leukemia cell differentiation protein Mcl-1/Bcl-2-like protein 11, sequence (Q07820 whole entry, the tested form may be a part): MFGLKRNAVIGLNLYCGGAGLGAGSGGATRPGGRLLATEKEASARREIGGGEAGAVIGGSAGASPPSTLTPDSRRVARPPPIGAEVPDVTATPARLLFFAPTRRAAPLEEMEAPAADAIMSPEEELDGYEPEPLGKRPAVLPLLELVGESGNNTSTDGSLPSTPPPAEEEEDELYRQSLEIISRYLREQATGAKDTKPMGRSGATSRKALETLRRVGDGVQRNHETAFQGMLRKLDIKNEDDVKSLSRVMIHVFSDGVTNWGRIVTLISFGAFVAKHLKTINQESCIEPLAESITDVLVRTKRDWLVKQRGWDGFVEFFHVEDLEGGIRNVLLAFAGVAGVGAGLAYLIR
Induced myeloid leukemia cell differentiation protein Mcl-1/Bcl-2-like protein 11, sequence (O43521 whole entry, further chain, the tested form may be a part): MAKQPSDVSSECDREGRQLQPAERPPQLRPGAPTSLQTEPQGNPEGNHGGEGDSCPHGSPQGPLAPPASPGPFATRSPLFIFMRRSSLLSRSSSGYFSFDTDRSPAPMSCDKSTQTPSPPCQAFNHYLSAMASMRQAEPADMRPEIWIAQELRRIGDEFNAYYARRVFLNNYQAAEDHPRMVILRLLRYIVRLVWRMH

For the molecule `C[C@@H]1[C@@H](C)CCC[C@H](CN2CCN3CCN(C(=O)OC(C)(C)C)C[C@@H]3C2)[C@@H]2CC[C@H]2CN2C[C@@]3(CCCc4cc(Cl)ccc43)COc3ccc(cc32)C(=O)NS1(=O)=O`, the IC50 came out at 1.42 nM.

Turning to `C[C@@H]1[C@@H](C)CCC[C@@H](CC(=O)N2CCN3CCOC[C@H]3C2)[C@@H]2CC[C@H]2CN2C[C@@]3(CCCc4cc(Cl)ccc43)COc3ccc(cc32)C(=O)NS1(=O)=O`, the IC50 stood at 0.123 nM.

Usually IC50 stands for the concentration at which inhibition is half-maximal.
